# Positions of bridges follow the written chain, without caps; N, C: chain ends. Non-standard residues stand in square brackets, D forms with d. Residues, ends and D or L forms follow the SMILES beside them. Phe(4-NO2) = N[C@@H](Cc1ccc([N+](=O)[O-])cc1)C(=O)O; Bip = N[C@@H](Cc1ccc(-c2ccccc2)cc1)C(=O)O; Tyr(3-I) = N[C@@H](Cc1ccc(O)c(I)c1)C(=O)O; dBip = N[C@H](Cc1ccc(-c2ccccc2)cc1)C(=O)O; dDip = N[C@@H](C(=O)O)C(c1ccccc1)c1ccccc1; Phe(4-CN) = N#Cc1ccc(C[C@H](N)C(=O)O)cc1; Phe(4-Cl) = N[C@@H](Cc1ccc(Cl)cc1)C(=O)O; Dip = N[C@H](C(=O)O)C(c1ccccc1)c1ccccc1; Phe(3-F) = N[C@@H](Cc1cccc(F)c1)C(=O)O; Phe(4-F) = N[C@@H](Cc1ccc(F)cc1)C(=O)O; 2Nal = N[C@@H](Cc1ccc2ccccc2c1)C(=O)O; Phe(2-F) = N[C@@H](Cc1ccccc1F)C(=O)O; Igl = N[C@H](C(=O)O)C1Cc2ccccc2C1; 3Pal = N[C@@H](Cc1cccnc1)C(=O)O
# Tested on: rat pituitary cells
# Type: cell-based
# Details: 3 h
# Source text: Bioassay on the In Vitro Release of Growth Hormone
# (a) Rat Pituitary Cell Dispersion
# Pituitaries from adult Charles River CD male rats (Wilmington, Mass.) housed under controlled conditions were dispersed and cultured using aseptic technique by modification of previously described methods (Hoefer, M. T., et al., Mol. Cell. Endocrinol. 35:229 (1984); Ben-Jonathan, N., et al., Methods Enzymol. 103:249 (1983); and Heiman, M. L., et al., Endocrinology 116:410 (1985)). Pituitaries were removed from sacrificed rats, sectioned, and then placed into a siliconized, liquid scintillation vial containing 2 ml 0.2% trypsin (Worthington Biochemicals, Freehold, N.J.) in sterile-filtered Krebs-Ringer bicarbonate buffer supplemented with 1% bovine serum albumin, 14 mM glucose, modified Eagle medium (MEM) vitamin solution, and MEM amino acids (Gibco Laboratories, Grand Island, N.Y.) (KRBGA). All glassware was siliconized as described by Sayers, et al., Endocrinology 88:1063 (1971). The fragments were incubated in a water bath for 35 min at 37° C. with agitation. The vial contents then were poured into a scintillation vial containing 2 ml 0.1% DNase (Sigma Chemical Co., St. Louis, Mo.) in KRBGA and incubated for 2 min at 37° C. with agitation. After incubation, the tissue was decanted into a 15 ml centrifuge tube and allowed to settle. Medium was discarded, and pituitary sections were washed 3 times with 1 ml fresh-KRBGA. The cells were then dispersed in 2 ml 0.05% LBI (lima bean trypsin inhibitor, Worthington Biochemicals) by gently drawing the fragments into and expelling them out of a siliconized, fire polished Pasteur pipette. Dispersed cells were then filtered through a 630 μm diameter Nylon mesh (Tetko, Elmsford, N.Y.) into a fresh 15 ml centrifuge tube. An additional 2 ml of 0.05% LBI solution was used to rinse the first tube and was transferred to the second tube with filtering.
# The dispersed cells were then further diluted with approximately 15 ml sterile-filtered Dulbecco's modified Eagle medium (GIBCO), which was supplemented with 2.5% fetal calf serum (GIBCO), 3% horse serum (GIBCO), 10% fresh rat serum (stored on ice for no longer than 1 hr) from the pituitary donors, 1% MEM non-essential amino acids (GIBCO), and gentamycin (10 ng/ml; Sigma) and nystatin (10,000 U/ml; GIBCO). The cells were poured into a 50 ml round-bottomed glass extraction flask with a large diameter opening and then randomly plated at a density of approximately 200,000 cells per well (Co-star cluster 24; Rochester Scientific Co., Rochester, N.Y.). The plated cells were maintained in the above Dulbecco's medium in a humidified atmosphere of 95% air and 5% CO2 at 37° C. for 4-5 days.
# (c) Experimental Incubation and IC50 Determination
# In preparation for a hormone challenge, the cells were washed 3 times with medium 199 (GIBCO) to remove old medium and floating cells. Each treatment well contained a total volume of 1 ml medium 199 containing 1% BSA (fraction V; Sigma) with treatments as described below. Each antagonist candidate was tested using a single 24-well cell culture plate. Each treatment was performed in triplicate. Each plate contained 8 treatment groups: one 1 nM growth hormone releasing factor (GRF) (1-29)NH2-stimulated control group; one 1 nM somatostatin-inhibited control group in the presence of 1 nM GRF(1-29)NH2; and 6 doses of a given antagonist in the presence of both 1 nM SRIF and 1 nM GRF per plate. After 3 hrs at 37° C. in a air/carbon dioxide atmosphere (95/5%), the medium was removed and stored at −20° C. until radioimmunoassayed for growth hormone content. IC50's of each antagonist versus 1 nM SRIF were calculated using a computer program (SigmaPlot, Jandel Scientific, San Rafael, Calif.) with the maximum response constrained to the value of the 1 nM GRF(1-29)NH2-stimulated control.
row,IC50,Structure (SMILES)
1,1500 nM,"NCCCC[C@@H]1NC(=O)[C@@H](Cc2c[nH]c3ccccc23)NC(=O)[C@H](Cc2cccnc2)NC(=O)[C@H](NC(=O)[C@@H](N)Cc2ccc3ccccc3c2)CSSC[C@@H](C(=O)N[C@@H](Cc2ccc3ccccc3c2)C(N)=O)NC(=O)CNC1=O [Analog No. 33, H2-β-Nal-D-Cys-Pal-D-Trp-Lys-Gly-Cys-β-Nal-NH2] (H-[2Nal][dC][3Pal][dW]KGC[2Nal]-NH2; disulfide 2-7)"
2,420 nM,"C[C@@H]1NC(=O)[C@H](CCCCN)NC(=O)[C@@H](Cc2c[nH]c3ccccc23)NC(=O)[C@H](Cc2cccnc2)NC(=O)[C@H](NC(=O)[C@@H](N)Cc2ccc3ccccc3c2)CSSC[C@@H](C(=O)N[C@@H](Cc2ccc3ccccc3c2)C(N)=O)NC1=O [Analog No. 34, H2-β-Nal-D-Cys-Pal-D-Trp-Lys-Ala-Cys-β-Nal-NH2] (H-[2Nal][dC][3Pal][dW]KAC[2Nal]-NH2; disulfide 2-7)"
3,52 nM,"CC(C)C[C@@H]1NC(=O)[C@H](CCCCN)NC(=O)[C@@H](Cc2c[nH]c3ccccc23)NC(=O)[C@H](Cc2cccnc2)NC(=O)[C@H](NC(=O)[C@@H](N)Cc2ccc3ccccc3c2)CSSC[C@@H](C(=O)N[C@@H](Cc2ccc3ccccc3c2)C(N)=O)NC1=O [Analog No. 35, H2-β-Nal-D-Cys-Pal-D-Trp-Lys-Leu-Cys-β-Nal-NH2] (H-[2Nal][dC][3Pal][dW]KLC[2Nal]-NH2; disulfide 2-7)"
4,1030 nM,"CC[C@H](C)[C@@H]1NC(=O)[C@H](CCCCN)NC(=O)[C@@H](Cc2c[nH]c3ccccc23)NC(=O)[C@H](Cc2ccc(O)cc2)NC(=O)[C@H](NC(=O)[C@@H](N)Cc2ccc(-c3ccccc3)cc2)CSSC[C@@H](C(=O)N[C@@H](Cc2ccc(-c3ccccc3)cc2)C(N)=O)NC1=O [Analog No. 36, H2-Bip-D-Cys-Tyr-D-Trp-Lys-Ile-Cys-Bip-NH2] (H-[Bip][dC]Y[dW]KIC[Bip]-NH2; disulfide 2-7)"
5,780 nM,"CC(C)[C@@H]1NC(=O)[C@H](CCCCN)NC(=O)[C@@H](Cc2c[nH]c3ccccc23)NC(=O)[C@H](Cc2ccc(O)cc2)NC(=O)[C@H](NC(=O)[C@H](N)Cc2ccc(-c3ccccc3)cc2)CSSC[C@@H](C(=O)N[C@@H](Cc2ccc3ccccc3c2)C(N)=O)NC1=O [Analog No. 37, H2-D-Bip-D-Cys-Tyr-D-Trp-Lys-Val-Cys-β-Nal-NH2] (H-[dBip][dC]Y[dW]KVC[2Nal]-NH2; disulfide 2-7)"
6,110 nM,"CC(C)[C@@H]1NC(=O)[C@H](CCCCN)NC(=O)[C@@H](Cc2c[nH]c3ccccc23)NC(=O)[C@H](Cc2c[nH]cn2)NC(=O)[C@H](NC(=O)[C@@H](N)Cc2ccc(F)cc2)CSSC[C@@H](C(=O)N[C@@H](Cc2ccc(F)cc2)C(N)=O)NC1=O [Analog No. 38, H2-p-F-Phe-D-Cys-His-D-Trp-Lys-Val-Cys-p-F-Phe-NH2] (H-[Phe(4-F)][dC]H[dW]KVC[Phe(4-F)]-NH2; disulfide 2-7)"
7,34 nM,"CC(C)[C@@H]1NC(=O)[C@H](CCCCN)NC(=O)[C@@H](Cc2c[nH]c3ccccc23)NC(=O)[C@H](Cc2cccnc2)NC(=O)[C@H](NC(=O)[C@@H](N)Cc2ccc([N+](=O)[O-])cc2)CSSC[C@@H](C(=O)N[C@@H](Cc2ccc(O)cc2)C(N)=O)NC1=O [Analog No. 39, H2-Npa-D-Cys-Pal-D-Trp-Lys-Val-Cys-Tyr-NH2] (H-[Phe(4-NO2)][dC][3Pal][dW]KVCY-NH2; disulfide 2-7)"
8,110 nM,"CC(C)[C@@H]1NC(=O)[C@H](CCCCN)NC(=O)[C@@H](Cc2c[nH]c3ccccc23)NC(=O)[C@H](Cc2c[nH]cn2)NC(=O)[C@H](NC(=O)[C@@H](N)Cc2cccc(F)c2)CSSC[C@@H](C(=O)N[C@@H](Cc2cccc(F)c2)C(N)=O)NC1=O [Analog No. 40, H2-m-F-Phe-D-Cys-His-D-Trp-Lys-Val-Cys-m-F-Phe-NH2] (H-[Phe(3-F)][dC]H[dW]KVC[Phe(3-F)]-NH2; disulfide 2-7)"
9,210 nM,"CC(C)[C@@H]1NC(=O)[C@H](CCCCN)NC(=O)[C@@H](Cc2c[nH]c3ccccc23)NC(=O)[C@H](Cc2c[nH]cn2)NC(=O)[C@H](NC(=O)[C@@H](N)Cc2ccccc2F)CSSC[C@@H](C(=O)N[C@@H](Cc2ccccc2F)C(N)=O)NC1=O [Analog No. 41, H2-o-F-Phe-D-Cys-His-D-Trp-Lys-Val-Cys-o-F-Phe-NH2] (H-[Phe(2-F)][dC]H[dW]KVC[Phe(2-F)]-NH2; disulfide 2-7)"
10,44 nM,"CC(C)[C@@H]1NC(=O)[C@H](CCCCN)NC(=O)[C@@H](Cc2c[nH]c3ccccc23)NC(=O)[C@H](Cc2cccnc2)NC(=O)[C@H](NC(=O)[C@@H](N)Cc2ccc3ccccc3c2)CSSC[C@@H](C(=O)N[C@H](C(N)=O)C(c2ccccc2)c2ccccc2)NC1=O [Analog No. 42, H2-β-Nal-D-Cys-Pal-D-Trp-Lys-Val-Cys-Dip-NH2] (H-[2Nal][dC][3Pal][dW]KVC[Dip]-NH2; disulfide 2-7)"
11,0.82 nM,"CC(C)[C@@H]1NC(=O)[C@H](CCCCN)NC(=O)[C@@H](Cc2c[nH]c3ccccc23)NC(=O)[C@H](Cc2cccnc2)NC(=O)[C@H](NC(=O)[C@@H](N)Cc2ccc(Cl)cc2)CSSC[C@@H](C(=O)N[C@@H](Cc2ccc(Cl)cc2)C(N)=O)NC1=O [Analog No. 43, H2-Cpa-D-Cys-Pal-D-Trp-Lys-Val-Cys-Cpa-NH2] (H-[Phe(4-Cl)][dC][3Pal][dW]KVC[Phe(4-Cl)]-NH2; disulfide 2-7)"
12,21 nM,"CC(C)[C@@H]1NC(=O)[C@H](CCCCN)NC(=O)[C@@H](Cc2c[nH]c3ccccc23)NC(=O)[C@H](Cc2cccnc2)NC(=O)[C@H](NC(=O)[C@@H](N)C2Cc3ccccc3C2)CSSC[C@@H](C(=O)N[C@H](C(N)=O)C2Cc3ccccc3C2)NC1=O [Analog No. 44, H2-Igl-D-Cys-Pal-D-Trp-Lys-Val-Cys-Igl-NH2] (H-[Igl][dC][3Pal][dW]KVC[Igl]-NH2; disulfide 2-7)"
13,130 nM,"CC(C)[C@@H]1NC(=O)[C@H](CCCCN)NC(=O)[C@@H](Cc2c[nH]c3ccccc23)NC(=O)[C@H](Cc2cccnc2)NC(=O)[C@H](NC(=O)[C@@H](N)Cc2ccc3ccccc3c2)CSSC[C@@H](C(=O)N[C@@H](C(N)=O)C(c2ccccc2)c2ccccc2)NC1=O [Analog No. 45, H2-β-Nal-D-Cys-Pal-D-Trp-Lys-Val-Cys-D-Dip-NH2] (H-[2Nal][dC][3Pal][dW]KVC[dDip]-NH2; disulfide 2-7)"
14,20 nM,"CC(C)[C@@H]1NC(=O)[C@H](CCCCN)NC(=O)[C@@H](Cc2c[nH]c3ccccc23)NC(=O)[C@H](Cc2ccc(O)c(I)c2)NC(=O)[C@H](NC(=O)[C@@H](N)Cc2ccc3ccccc3c2)CSSC[C@@H](C(=O)N[C@@H](Cc2ccc3ccccc3c2)C(N)=O)NC1=O [Analog No. 46, H2-β-Nal-D-Cys-3-I-Tyr-D-Trp-Lys-Val-Cys-β-Nal-NH2] (H-[2Nal][dC][Tyr(3-I)][dW]KVC[2Nal]-NH2; disulfide 2-7)"
15,53 nM,"CC(C)[C@@H]1NC(=O)[C@H](CCCCN)NC(=O)[C@@H](Cc2c[nH]c3ccccc23)NC(=O)[C@H](Cc2cccnc2)NC(=O)[C@H](NC(=O)[C@@H](N)Cc2ccc(C#N)cc2)CSSC[C@@H](C(=O)N[C@@H](Cc2ccc(C#N)cc2)C(N)=O)NC1=O [Analog No. 47, H2-p-CN-Phe-D-Cys-Pal-D-Trp-Lys-Val-Cys-p-CN-Phe-NH2] (H-[Phe(4-CN)][dC][3Pal][dW]KVC[Phe(4-CN)]-NH2; disulfide 2-7)"
16,50 nM,"CC(C)[C@@H]1NC(=O)[C@H](CCCCN)NC(=O)[C@@H](Cc2c[nH]c3ccccc23)NC(=O)[C@H](Cc2ccc(O)cc2)NC(=O)[C@H](NC(=O)[C@@H](N)Cc2ccc3ccccc3c2)CSSC[C@@H](C(=O)N[C@@H](C(N)=O)C(c2ccccc2)c2ccccc2)NC1=O [Analog No. 48, H2-β-Nal-D-Cys-Tyr-D-Trp-Lys-Val-Cys-D-Dip-NH2] (H-[2Nal][dC]Y[dW]KVC[dDip]-NH2; disulfide 2-7)"

# — patent publication US9133262B2, “Somatostatin antagonists” (Ipsen Pharma S.A.S., priority 1996, dated 2015)
